Here are results for seven compounds from ChEMBL document CHEMBL4321809, “Structure-Reactivity Relationships on Substrates and Inhibitors of the Lysine Deacylase Sirtuin 2 from Schistosoma mansoni (SmSirt2)” (J Med Chem, 2019).

The source made the active and inactive calls. No cut-off for these calls is given here.

The target of data set [1] is T1, NAD-dependent protein deacetylase (Schistosoma mansoni, UniProt T1VXA1).
T1 sequence (T1VXA1 whole entry): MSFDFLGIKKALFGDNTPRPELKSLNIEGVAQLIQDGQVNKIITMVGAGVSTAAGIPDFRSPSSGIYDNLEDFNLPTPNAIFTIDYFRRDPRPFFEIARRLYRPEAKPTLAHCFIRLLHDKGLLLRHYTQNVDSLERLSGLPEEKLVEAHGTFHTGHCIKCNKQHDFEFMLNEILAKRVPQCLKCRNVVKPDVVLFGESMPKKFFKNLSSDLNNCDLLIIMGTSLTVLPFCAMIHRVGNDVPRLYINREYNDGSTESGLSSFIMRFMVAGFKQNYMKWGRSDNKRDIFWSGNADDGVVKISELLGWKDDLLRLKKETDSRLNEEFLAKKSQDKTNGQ
The data set can be described thus: Inhibition of recombinant Schistosoma mansoni sirtuin 2 (21 to 322 residues) expressed in Escherichia coli BL21(DE3) cells using ZMAL as substrate after 1 hr in presence of NAD+ by homogeneous fluorescence based analysis.

The target of data set [2] is T2, NAD-dependent protein deacetylase sirtuin-2 (Homo sapiens, UniProt Q8IXJ6).
T2 sequence (Q8IXJ6 whole entry): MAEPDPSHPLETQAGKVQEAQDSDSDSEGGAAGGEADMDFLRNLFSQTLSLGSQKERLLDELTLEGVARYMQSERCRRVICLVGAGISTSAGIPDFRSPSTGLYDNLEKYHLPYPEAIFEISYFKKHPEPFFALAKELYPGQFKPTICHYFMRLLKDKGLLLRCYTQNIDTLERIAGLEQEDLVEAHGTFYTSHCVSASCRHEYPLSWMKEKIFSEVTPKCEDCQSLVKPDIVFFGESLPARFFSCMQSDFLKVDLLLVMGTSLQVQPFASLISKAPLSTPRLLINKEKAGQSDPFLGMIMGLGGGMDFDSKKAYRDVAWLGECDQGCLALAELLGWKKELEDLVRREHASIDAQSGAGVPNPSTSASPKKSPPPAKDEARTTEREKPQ
As to the kind of experiment: Inhibition of N-terminal His6 tagged human sirtuin 2 (25 to 389 residues) at 50 uM using Cbz-Lys(acetyl)-AMC as substrate after 4 hrs in presence of NAD+ by homogeneous fluorescence based analysis relative to control.

In data set [3] the target is T3, NAD-dependent protein deacetylase (Schistosoma mansoni) (UniProt T1VXA1).
T3 sequence (whole entry): T1 sequence (T1VXA1 whole entry)
As to the kind of experiment: Inhibition of recombinant Schistosoma mansoni sirtuin 2 (21 to 322 residues) expressed in Escherichia coli BL21(DE3) cells at 25 uM using ZMAL as susbtrate after 1 hr in presence of NAD+ by homogeneous fluorescence based analysis relative to control.

The target of data set [4] is T2, NAD-dependent protein deacetylase sirtuin-2. As to the kind of experiment: Inhibition of N-terminal His6 tagged human sirtuin 2 (25 to 389 residues) assessed as inhibition of substrate demyristoylation at 20 uM using (Z)-(Myr)-Lys-AMC as susbtrate after 4 hrs in presence of NAD+ by homogeneous fluorescence based analysis relative to control.
Data set [5] has as its target T3, NAD-dependent protein deacetylase (Schistosoma mansoni). The data set can be described thus: Inhibition of recombinant Schistosoma mansoni sirtuin 2 (21 to 322 residues) expressed in Escherichia coli BL21(DE3) cells assessed as inhibition of substrate demyristoylation at 20 uM using (Z)-(Myr)-Lys-AMC as susbtrate after 1 hr in presence of NAD+ by homogeneous fluorescence based analysis relative to control.

The target in data set [6] is T2, NAD-dependent protein deacetylase sirtuin-2. The data set can be described thus: Inhibition of N-terminal His6 tagged human sirtuin 2 (25 to 389 residues) at 25 uM using Cbz-Lys(acetyl)-AMC as substrate after 4 hrs in presence of NAD+ by homogeneous fluorescence based analysis relative to control.
The target in data set [7] is T3, NAD-dependent protein deacetylase (Schistosoma mansoni). As to the kind of experiment: Inhibition of recombinant Schistosoma mansoni sirtuin 2 (21 to 322 residues) expressed in Escherichia coli BL21(DE3) cells assessed as inhibition of substrate demyristoylation at 20 uM using (Z)-(Myr)-Lys-AMC as substrate relative to control.
Data set [8] concerns the target T2, NAD-dependent protein deacetylase sirtuin-2. The data set can be described thus: Inhibition of human sirutin 2 assessed as inhibition of susbtrate demyristoylation at 20 uM using (Z)-(Myr)-Lys-AMC as substrate relative to control.
For data set [9], the target named is T3, NAD-dependent protein deacetylase (Schistosoma mansoni). The data set can be described thus: Inhibition of recombinant Schistosoma mansoni sirtuin 2 (21 to 322 residues) expressed in Escherichia coli BL21(DE3) cells assessed as inhibition of substrate deacetylation at 20 uM using ZMAL as substrate relative to control.
Data set [10] deals with Schistosoma mansoni. As to the kind of experiment: Antiparasitic activity against adult Schistosoma mansoni Puerto Rico assessed as reduction in egg laying at 10 to 20 uM after 24 hrs by microscopic analysis. In kind it is functional, organism-based.
Data set [11] has as its target T2, NAD-dependent protein deacetylase sirtuin-2. As to the kind of experiment: Inhibition of N-terminal His6 tagged human sirtuin 2 (25 to 389 residues) assessed as inhibition of substrate demyristoylation using (Z)-(Myr)-Lys-AMC as susbtrate after 4 hrs in presence of NAD+ by homogeneous fluorescence based analysis.
Data set [12] concerns Schistosoma mansoni. The data set can be described thus: Antiparasitic activity against adult Schistosoma mansoni Puerto Rico assessed as reduction in worm pairing at 10 to 20 uM after 24 hrs by microscopic analysis. In kind it is functional, organism-based.
In data set [13] the test system is Schistosoma mansoni. The data set can be described thus: Antiparasitic activity against Schistosoma mansoni Puerto Rico assessed as reduction in parasite viability at 10 to 20 uM after 72 hrs by microscopic analysis. The class given is functional, organism-based.
Data set [14] addresses T4, NAD-dependent protein deacetylase sirtuin-1 (Homo sapiens, UniProt Q96EB6).
T4 sequence (Q96EB6 whole entry): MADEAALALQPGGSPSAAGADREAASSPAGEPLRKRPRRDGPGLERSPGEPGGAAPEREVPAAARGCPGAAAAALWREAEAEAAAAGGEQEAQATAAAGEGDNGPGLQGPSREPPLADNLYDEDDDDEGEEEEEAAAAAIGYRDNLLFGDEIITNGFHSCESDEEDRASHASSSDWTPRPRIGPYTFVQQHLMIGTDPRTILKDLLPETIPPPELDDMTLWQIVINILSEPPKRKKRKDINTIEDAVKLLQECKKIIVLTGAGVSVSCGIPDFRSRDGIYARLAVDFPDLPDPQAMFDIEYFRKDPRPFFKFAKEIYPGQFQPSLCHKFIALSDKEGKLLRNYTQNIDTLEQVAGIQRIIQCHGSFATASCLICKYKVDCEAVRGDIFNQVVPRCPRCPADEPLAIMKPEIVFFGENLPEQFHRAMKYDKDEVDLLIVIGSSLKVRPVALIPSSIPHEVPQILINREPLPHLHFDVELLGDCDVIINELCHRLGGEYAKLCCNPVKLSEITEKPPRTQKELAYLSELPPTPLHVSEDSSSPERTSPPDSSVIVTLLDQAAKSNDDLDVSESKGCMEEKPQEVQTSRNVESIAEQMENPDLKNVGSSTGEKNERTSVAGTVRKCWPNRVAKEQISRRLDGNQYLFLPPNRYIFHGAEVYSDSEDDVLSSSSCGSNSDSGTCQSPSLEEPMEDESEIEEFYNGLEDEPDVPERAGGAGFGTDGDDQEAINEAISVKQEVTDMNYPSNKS
As to the kind of experiment: Inhibition of human sirtuin 1 at 25 uM relative to control.

A further data set relates to HL-60. As to the kind of experiment: Cytotoxicity against human HL60 cells at 10 uM after 72 hrs by Cell titer MTS dye based analysis. The settings on record: hl-60, 72 h.
Data set [15] deals with T5, NAD-dependent protein deacetylase sirtuin-3, mitochondrial (Homo sapiens, UniProt Q9NTG7).
T5 sequence (Q9NTG7 whole entry): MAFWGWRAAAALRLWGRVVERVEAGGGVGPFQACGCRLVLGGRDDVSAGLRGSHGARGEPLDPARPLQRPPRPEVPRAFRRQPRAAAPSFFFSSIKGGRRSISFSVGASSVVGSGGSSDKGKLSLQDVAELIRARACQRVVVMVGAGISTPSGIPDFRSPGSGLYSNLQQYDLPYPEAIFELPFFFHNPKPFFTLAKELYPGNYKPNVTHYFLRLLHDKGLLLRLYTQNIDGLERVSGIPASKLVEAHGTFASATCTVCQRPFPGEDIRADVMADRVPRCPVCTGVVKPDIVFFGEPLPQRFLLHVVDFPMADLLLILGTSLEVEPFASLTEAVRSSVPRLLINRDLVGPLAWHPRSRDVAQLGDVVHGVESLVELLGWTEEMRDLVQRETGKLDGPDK
The data set can be described thus: Inhibition of human sirtuin 3 at 25 uM relative to control.

A short description of data set [16]: Selectivity ratio of IC50 for N-terminal His6 tagged human sirtuin 2 (25 to 389 residues) to IC50 for recombinant Schistosoma mansoni sirtuin 2 (21 to 322 residues) expressed in Escherichia coli BL21(DE3) cells.
In data set [17] the target is T2, NAD-dependent protein deacetylase sirtuin-2. As to the kind of experiment: Inhibition of N-terminal His6 tagged human sirtuin 2 (25 to 389 residues) using Cbz-Lys(acetyl)-AMC as substrate after 4 hrs in presence of NAD+ by homogeneous fluorescence based analysis.

As for `O=C(c1cc2cc(Cl)ccc2[nH]1)N1CCCCC1c1cccnc1` (stereo unspecified), the concentration for half-maximal inhibition (IC50) (usually the concentration at which inhibition is half-maximal) in data set [1] worked out at 18.2 µM. In addition, the inhibition (in general, the percentage by which the read-out fell short of the control) at 50 µM in data set [2] is < 15%.
`CSc1ccc(Oc2ccc(C(C)N(C)c3ncc4c(N)nc(N)nc4n3)cc2)cc1` (stereo unspecified): the inhibition in [3] was 49%; in data set [5], < 15%. In data set [4], the inhibition at 20 µM was 38.1%. Moreover, the inhibition at 25 µM in data set [6] was < 15%.
As for `Cc1cc(C)nc(SCC(=O)Nc2ncc(Cc3cccc4ccccc34)s2)n1`, the inhibition in data set [7] and in [9] was < 15% in each case. Besides, in data set [8], the inhibition at 20 µM is < 15%.
Consider `COc1cc(OC)cc(Sc2ccc(C(C)N(C)c3ncc4c(N)nc(N)nc4n3)cc2)c1` (stereo unspecified), for which the inhibition result with Schistosoma mansoni [10], in the data set with Schistosoma mansoni [12] and in the data set on Schistosoma mansoni [13] was “Active” throughout. In addition, the values for the IC50 in [11] and in [1] were 25.1 µM and 4.3 µM, respectively. The inhibition at 25 µM in data set [14] is < 15%; in data set [15] it was < 15%; in [6], 27.9%. Further, the Activity result in the data set on HL-60 is listed as “Non-Toxic”. Further, the inhibition in data set [5] was 15%.
Regarding `COc1ccc(C(=O)Nc2ccc(C(C)N(C)c3ncc4c(N)nc(N)nc4n3)cc2)cc1` (stereo unspecified), the values for the inhibition in data set [3] and in [5] were 41.9% and < 15%, respectively. Also, in [4], the inhibition at 20 µM was < 15%. In data set [6], the inhibition at 25 µM is < 15%.
For `COc1cc(OC)cc(Sc2ccc(C(c3ccccc3)N(C)c3ncc4c(N)nc(N)nc4n3)cc2)c1` (stereo unspecified), the inhibition result in the data set on Schistosoma mansoni [10], in the data set with Schistosoma mansoni [12] and in the data set with Schistosoma mansoni [13] was “Active” in each case. The Ratio IC50 in data set [16] is 10. For the same compound, the concentration for half-maximal inhibition (IC50) in data set [11] was 15.6 µM; in data set [1], 2 µM; in data set [17], 21.5 µM. The inhibition in data set [5] was < 15%.
For `COc1cc(OC)cc(Oc2ccc(C(c3ccccc3)N(C)c3ncc4c(N)nc(N)nc4n3)cc2)c1` (stereo unspecified), the inhibition entry with Schistosoma mansoni [10], in the data set with Schistosoma mansoni [12] and in the data set with Schistosoma mansoni [13] was “Active” throughout. Further, the IC50 in data set [11] was 13.1 µM; in data set [1], 3.3 µM. Moreover, the inhibition at 25 µM in data set [14] is < 15%; in data set [15], < 15%; in [6] it was 29.6%. For the same compound, the Activity entry with HL-60 is “Non-Toxic”. Besides, the inhibition in [5] was < 15%.
